pIC50: −log10 of the molar value.

We go through 7 molecules from US8835432B2, “Heterocyclic compounds and their uses” (Amgen Inc., priority 2012, dated 2014).

The test system of assay [1] is mouse model of rheumatoid arthritis. The note with it: in vivo; cited from earlier work.
The test system of assay [2] is model of systemic lupus erythematosis. Particulars: in vivo; cited from earlier work.
A further assay concerns the target T1, PI3Ka (Homo sapiens, UniProt P42336).
T1 construct: Full length p110 subunits of PI3k α, β and δ, N-terminally labeled with polyHis tag; polyHis (N); made in house; host or cells: Sf9 insect cells (baculovirus)
Briefly: In vitro enzyme assay, PI3K alpha. The assay is classed as biochemical. The note with it: for PI3K: a/d: ratio of alpha to delta IC50. As for the experimental part: (§1) Full length p110 subunits of PI3k α, β and δ, N-terminally labeled with polyHis tag, were coexpressed with p85 with Baculo virus expression vectors in sf9 insect cells. P110/p85 heterodimers were purified by sequential Ni-NTA, Q-HP, Superdex-100 chromatography. Purified α, β and δ isozymes were stored at −20° C. in 20 mM Tris, pH 8, 0.2M NaCl, 50% glycerol, 5 mM DTT, 2 mM Na cholate. Truncated PI3Kγ, residues 114-1102, N-terminally labeled with polyHis tag, was expressed with Baculo virus in Hi5 insect cells. The γ isozyme was purified by sequential Ni-NTA, Superdex-200, Q-HP chromatography. The γ isozyme was stored frozen at −80° C. in NaH2PO4, pH 8, 0.2M NaCl, 1% ethylene glycol, 2 mM β-mercaptoethanol.
(§2) Assays were performed in 25 μL with the above final concentrations of components in white polyproplyene plates (Costar 3355). Phospatidyl inositol phosphoacceptor, PtdIns(4,5)P2 P4508, was from Echelon Biosciences. The ATPase activity of the alpha and gamma isozymes was not greatly stimulated by PtdIns(4,5)P2 under these conditions and was therefore omitted from the assay of these isozymes. Test compounds were dissolved in dimethyl sulfoxide and diluted with three-fold serial dilutions. The compound in DMSO (1 μL) was added per test well, and the inhibition relative to reactions containing no compound, with and without enzyme was determined After assay incubation at rt, the reaction was stopped and residual ATP determined by addition of an equal volume of a commercial ATP bioluminescence kit (Perkin Elmer EasyLite) according to the manufacturer's instructions, and detected using a AnalystGT luminometer.

Assay [3] deals with T2, PI3Kb (Homo sapiens, UniProt P42338). Briefly: Forkhead translocation assay (MDA MB468 Forkhead-DiversaGFP cells). The assay is classed as cell-based. Also on record: endogenous in cells; host or cells: MDA MB468 (Forkhead-DiversaGFP) cells. Particulars: first value of the cell; MDA468 forkhead; read-out: PI3KbMDA468 FH. How it is done: (§3) GFP Assays for Detecting Inhibition of Class Ia and Class III PI3K
T2 sequence (P42338 whole entry): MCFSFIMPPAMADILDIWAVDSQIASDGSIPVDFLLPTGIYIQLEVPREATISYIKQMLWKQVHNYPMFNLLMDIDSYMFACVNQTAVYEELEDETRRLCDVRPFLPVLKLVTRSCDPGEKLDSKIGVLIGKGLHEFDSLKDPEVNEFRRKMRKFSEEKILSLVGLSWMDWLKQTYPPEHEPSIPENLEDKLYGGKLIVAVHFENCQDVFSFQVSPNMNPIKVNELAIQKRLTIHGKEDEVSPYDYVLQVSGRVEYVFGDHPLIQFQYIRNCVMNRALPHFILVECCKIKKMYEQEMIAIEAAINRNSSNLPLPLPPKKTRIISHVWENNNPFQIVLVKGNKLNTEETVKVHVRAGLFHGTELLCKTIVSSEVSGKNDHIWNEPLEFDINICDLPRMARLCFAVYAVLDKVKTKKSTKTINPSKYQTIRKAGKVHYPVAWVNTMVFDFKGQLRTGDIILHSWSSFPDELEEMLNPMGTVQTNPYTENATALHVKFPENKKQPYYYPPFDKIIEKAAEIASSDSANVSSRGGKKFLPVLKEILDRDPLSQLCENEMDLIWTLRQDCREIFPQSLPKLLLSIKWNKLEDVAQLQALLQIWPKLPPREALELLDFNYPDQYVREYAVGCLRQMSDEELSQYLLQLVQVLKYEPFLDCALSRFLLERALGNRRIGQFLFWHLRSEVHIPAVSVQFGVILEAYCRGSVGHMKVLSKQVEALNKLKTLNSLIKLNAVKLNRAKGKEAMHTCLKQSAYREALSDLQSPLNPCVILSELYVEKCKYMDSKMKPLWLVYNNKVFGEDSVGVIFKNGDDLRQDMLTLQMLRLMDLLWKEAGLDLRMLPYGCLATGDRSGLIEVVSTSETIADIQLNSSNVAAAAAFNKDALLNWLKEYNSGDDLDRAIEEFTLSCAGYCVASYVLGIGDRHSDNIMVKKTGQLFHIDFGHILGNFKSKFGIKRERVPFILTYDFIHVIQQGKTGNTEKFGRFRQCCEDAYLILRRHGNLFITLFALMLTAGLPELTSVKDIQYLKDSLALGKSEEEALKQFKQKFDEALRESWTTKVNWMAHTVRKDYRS
T2 sequence (P27986 whole entry partner): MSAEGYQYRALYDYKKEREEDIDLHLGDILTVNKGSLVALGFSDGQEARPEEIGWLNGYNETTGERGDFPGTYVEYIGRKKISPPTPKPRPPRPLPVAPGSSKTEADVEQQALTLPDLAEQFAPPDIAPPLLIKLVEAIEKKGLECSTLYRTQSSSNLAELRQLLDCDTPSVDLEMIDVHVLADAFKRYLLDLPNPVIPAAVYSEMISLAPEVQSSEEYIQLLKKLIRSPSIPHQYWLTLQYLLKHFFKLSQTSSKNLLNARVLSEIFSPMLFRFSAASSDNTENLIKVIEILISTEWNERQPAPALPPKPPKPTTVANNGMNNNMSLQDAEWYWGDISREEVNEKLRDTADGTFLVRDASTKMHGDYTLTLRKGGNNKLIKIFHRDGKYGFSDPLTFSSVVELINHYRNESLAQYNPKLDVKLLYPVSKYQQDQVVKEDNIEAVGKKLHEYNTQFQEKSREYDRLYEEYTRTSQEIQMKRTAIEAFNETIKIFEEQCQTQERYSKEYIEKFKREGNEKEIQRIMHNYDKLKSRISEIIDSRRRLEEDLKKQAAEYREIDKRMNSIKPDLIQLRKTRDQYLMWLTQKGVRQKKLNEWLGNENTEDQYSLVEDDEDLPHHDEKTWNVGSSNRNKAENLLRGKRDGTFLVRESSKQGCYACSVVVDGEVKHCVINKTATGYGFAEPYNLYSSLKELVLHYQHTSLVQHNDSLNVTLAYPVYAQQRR
Forkhead (FKHRL1) is a substrate for AKT1. It is cytoplasmic when phosphorylated by AKT (survival/growth). Inhibition of AKT (stasis/apoptosis)-forkhead translocation to the nucleus
Forkhead Translocation Assay (MDA MB468 Forkhead-DiversaGFP Cells)
Treat cells with compound in growth medium 1 h. Fix and image.

For a further assay, the system named is mu splenocytes pAKT. Briefly: on target anti-IgM mu splenocytes pAKT. The assay is classed as cell-based. The note with it: Mus musculus, Splenocyte, read-out: on target anti-IgM mu splenocytes pAKT (Hu splenocytes PAKT).
For assay [4], the target named is T2, PI3Kb. The assay is described as follows: PI3Kb MB MDA468 cell assay. The assay is classed as cell-based. Also on record: endogenous in cells; host or cells: MDA MB468 (Forkhead-DiversaGFP) cells. The note with it: second value of the cell; read-out: PI3KbMBMDA468.
Assay [5] addresses T2, PI3Kb. Briefly: In vitro enzyme assay, PI3K beta. The assay is classed as biochemical. On the set-up: Full length p110 subunits of PI3k α, β and δ, N-terminally labeled with polyHis tag; polyHis (N); made in house; host or cells: Sf9 insect cells (baculovirus). The note with it: read-out: P13K b IC50. How it is done: as §1, §2
The target of the next assay is T3, PI3KIII (Homo sapiens, UniProt Q8NEB9).
T3 construct: host or cells: U2OS EGFP-2XFYVE cells
Briefly: Class III PI(3)P assay (U20S EGFP-2XFYVE cells). The assay is classed as cell-based. As for the experimental part:
as §3
FYVE domains bind to PI(3)P. the majority is generated by constitutive action of PI3K Class III
Class III PI(3)P assay (U20S EGFP-2XFYVE Cells/GE Healthcare)
Wash cells with assay buffer. Treat with compounds in assay buffer 1 h. Fix and image.
Control for all 3 assays is […] Wortmannin:
PI(3)P depleted from endosomes

A further assay concerns the target T4, PI3Kg (Homo sapiens, UniProt P48736).
T4 construct: Truncated PI3Kγ, residues 114-1102, N-terminally labeled with polyHis tag; polyHis (N); made in house; host or cells: Hi5 insect cells (baculovirus)
The assay is described as follows: In vitro enzyme assay, PI3K gamma. The assay is classed as biochemical. The note with it: for PI3K: g/d: ratio of gamma to delta IC50. As for the experimental part:
as §1, §2

The test system of another assay is pAKT. The assay is described as follows: pAKT in vivo assay. Particulars: mice, p.o.; for in vivo pAKT data, ED50 (uM) WB: first value of the cell; for in vivo pAKT data, ED50 (uM) spleenocytes: second value of the cell. As for the experimental part: Vehicle and compounds are administered p.o. (0.2 mL) by gavage (Oral Gavage Needles Popper & Sons, New Hyde Park, N.Y.) to mice (Transgenic Line 3751, female, 10-12 wks Amgen Inc, Thousand Oaks, Calif.) 15 min prior to the injection i.v (0.2 mLs) of anti-IgM FITC (50 ug/mouse) (Jackson Immuno Research, West Grove, Pa.). After 45 min the mice are sacrificed within a CO2 chamber. Blood is drawn via cardiac puncture (0.3 mL) (1cc 25 g Syringes, Sherwood, St. Louis, Mo.) and transferred into a 15 mL conical vial (Nalge/Nunc International, Denmark). Blood is immediately fixed with 6.0 mL of BD Phosflow Lyse/Fix Buffer (BD Bioscience, San Jose, Calif.), inverted 3X's and placed in 37° C. water bath. Half of the spleen is removed and transferred to an eppendorf tube containing 0.5 mL of PBS (Invitrogen Corp, Grand Island, N.Y.). The spleen is crushed using a tissue grinder (Pellet Pestle, Kimble/Kontes, Vineland, N.J.) and immediately fixed with 6.0 mL of BD Phosflow Lyse/Fix buffer, inverted 3X's and placed in 37° C. water bath. Once tissues have been collected the mouse is cervically-dislocated and carcass to disposed. After 15 min, the 15 mL conical vials are removed from the 37° C. water bath and placed on ice until tissues are further processed. Crushed spleens are filtered through a 70 μm cell strainer (BD Bioscience, Bedford, Mass.) into another 15 mL conical vial and washed with 9 mL of PBS. Splenocytes and blood are spun @ 2,000 rpms for 10 min (cold) and buffer is aspirated. Cells are resuspended in 2.0 mL of cold (−20° C.) 90% methyl alcohol (Mallinckrodt Chemicals, Phillipsburg, N.J.). MeOH is slowly added while conical vial is rapidly vortexed. Tissues are then stored at −20° C. until cells can be stained for FACS analysis.

The next assay deals with T5, PI3K d (Homo sapiens, UniProt O00329).
T5 construct: Full length p110 subunits of PI3k α, β and δ, N-terminally labeled with polyHis tag; polyHis (N); made in house; host or cells: Sf9 insect cells (baculovirus)
T5 sequence (O00329 whole entry): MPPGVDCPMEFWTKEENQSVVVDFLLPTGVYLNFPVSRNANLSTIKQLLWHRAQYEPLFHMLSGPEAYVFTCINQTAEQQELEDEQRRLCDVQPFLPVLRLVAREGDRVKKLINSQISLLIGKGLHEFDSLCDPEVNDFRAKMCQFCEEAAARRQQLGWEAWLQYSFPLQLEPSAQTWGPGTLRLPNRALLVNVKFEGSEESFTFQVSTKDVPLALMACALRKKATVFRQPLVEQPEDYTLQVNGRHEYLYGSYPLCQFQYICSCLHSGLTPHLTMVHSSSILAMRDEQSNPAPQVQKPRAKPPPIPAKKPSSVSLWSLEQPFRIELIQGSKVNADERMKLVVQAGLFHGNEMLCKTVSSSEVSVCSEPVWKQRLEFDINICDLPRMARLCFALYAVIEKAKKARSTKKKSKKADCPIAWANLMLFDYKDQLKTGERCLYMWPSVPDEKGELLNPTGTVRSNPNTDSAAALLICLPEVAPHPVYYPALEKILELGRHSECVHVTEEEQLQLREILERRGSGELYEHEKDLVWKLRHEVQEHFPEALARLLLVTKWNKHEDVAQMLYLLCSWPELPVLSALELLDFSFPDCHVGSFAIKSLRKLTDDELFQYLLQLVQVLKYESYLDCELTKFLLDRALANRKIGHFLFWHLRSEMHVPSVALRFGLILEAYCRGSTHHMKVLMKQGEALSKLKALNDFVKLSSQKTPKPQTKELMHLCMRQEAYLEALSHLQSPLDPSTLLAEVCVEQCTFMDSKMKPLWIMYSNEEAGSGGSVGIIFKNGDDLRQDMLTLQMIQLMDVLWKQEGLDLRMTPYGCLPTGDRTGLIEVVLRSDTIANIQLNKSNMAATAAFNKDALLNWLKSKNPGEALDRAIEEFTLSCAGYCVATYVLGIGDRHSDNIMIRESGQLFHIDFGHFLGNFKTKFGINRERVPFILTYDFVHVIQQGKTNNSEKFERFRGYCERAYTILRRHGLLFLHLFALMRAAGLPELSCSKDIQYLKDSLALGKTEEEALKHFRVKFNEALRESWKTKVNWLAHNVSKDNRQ
T5 sequence (P27986 whole entry partner): as the sequence (P27986 whole entry partner) above
The assay is described as follows: In vitro enzyme assay, PI3K delta. The assay is classed as biochemical. How it is done: as §1, §2

In the next assay the test system is PI3K b. The assay is described as follows: In vitro enzyme assay, PI3K beta. The assay is classed as biochemical. The note with it: ratio of beta to delta IC50. As for the experimental part:
as §1, §2

T1 sequence (P42336 whole entry): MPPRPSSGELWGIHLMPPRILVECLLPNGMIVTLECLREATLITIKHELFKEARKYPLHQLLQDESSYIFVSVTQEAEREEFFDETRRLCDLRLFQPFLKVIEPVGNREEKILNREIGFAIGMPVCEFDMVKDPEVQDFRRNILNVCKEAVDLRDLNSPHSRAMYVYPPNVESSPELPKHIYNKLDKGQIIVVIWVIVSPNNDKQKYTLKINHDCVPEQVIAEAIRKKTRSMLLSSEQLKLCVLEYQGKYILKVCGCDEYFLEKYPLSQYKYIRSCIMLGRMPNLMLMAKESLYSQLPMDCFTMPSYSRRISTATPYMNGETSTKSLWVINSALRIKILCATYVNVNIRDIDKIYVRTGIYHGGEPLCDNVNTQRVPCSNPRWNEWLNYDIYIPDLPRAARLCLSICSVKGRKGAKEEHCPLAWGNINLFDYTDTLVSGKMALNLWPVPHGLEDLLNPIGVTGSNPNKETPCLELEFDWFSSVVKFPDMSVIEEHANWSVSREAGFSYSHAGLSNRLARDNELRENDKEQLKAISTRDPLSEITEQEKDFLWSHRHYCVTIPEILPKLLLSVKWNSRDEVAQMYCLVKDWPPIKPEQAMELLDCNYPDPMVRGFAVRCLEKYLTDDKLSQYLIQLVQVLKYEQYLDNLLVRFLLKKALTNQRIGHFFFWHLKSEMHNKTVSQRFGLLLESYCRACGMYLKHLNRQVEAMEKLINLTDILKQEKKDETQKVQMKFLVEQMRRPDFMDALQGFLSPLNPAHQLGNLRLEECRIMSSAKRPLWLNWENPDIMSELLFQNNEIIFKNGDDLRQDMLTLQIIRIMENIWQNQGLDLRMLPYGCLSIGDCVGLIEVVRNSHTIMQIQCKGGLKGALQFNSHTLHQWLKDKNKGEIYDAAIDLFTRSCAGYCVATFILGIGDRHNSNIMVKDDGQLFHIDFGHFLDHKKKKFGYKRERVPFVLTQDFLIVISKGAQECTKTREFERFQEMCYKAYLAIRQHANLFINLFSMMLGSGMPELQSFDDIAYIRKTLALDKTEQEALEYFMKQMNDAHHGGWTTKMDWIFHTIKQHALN
T1 sequence (P27986 whole entry partner): as the sequence (P27986 whole entry partner) above
T4 sequence (P48736 114-1102): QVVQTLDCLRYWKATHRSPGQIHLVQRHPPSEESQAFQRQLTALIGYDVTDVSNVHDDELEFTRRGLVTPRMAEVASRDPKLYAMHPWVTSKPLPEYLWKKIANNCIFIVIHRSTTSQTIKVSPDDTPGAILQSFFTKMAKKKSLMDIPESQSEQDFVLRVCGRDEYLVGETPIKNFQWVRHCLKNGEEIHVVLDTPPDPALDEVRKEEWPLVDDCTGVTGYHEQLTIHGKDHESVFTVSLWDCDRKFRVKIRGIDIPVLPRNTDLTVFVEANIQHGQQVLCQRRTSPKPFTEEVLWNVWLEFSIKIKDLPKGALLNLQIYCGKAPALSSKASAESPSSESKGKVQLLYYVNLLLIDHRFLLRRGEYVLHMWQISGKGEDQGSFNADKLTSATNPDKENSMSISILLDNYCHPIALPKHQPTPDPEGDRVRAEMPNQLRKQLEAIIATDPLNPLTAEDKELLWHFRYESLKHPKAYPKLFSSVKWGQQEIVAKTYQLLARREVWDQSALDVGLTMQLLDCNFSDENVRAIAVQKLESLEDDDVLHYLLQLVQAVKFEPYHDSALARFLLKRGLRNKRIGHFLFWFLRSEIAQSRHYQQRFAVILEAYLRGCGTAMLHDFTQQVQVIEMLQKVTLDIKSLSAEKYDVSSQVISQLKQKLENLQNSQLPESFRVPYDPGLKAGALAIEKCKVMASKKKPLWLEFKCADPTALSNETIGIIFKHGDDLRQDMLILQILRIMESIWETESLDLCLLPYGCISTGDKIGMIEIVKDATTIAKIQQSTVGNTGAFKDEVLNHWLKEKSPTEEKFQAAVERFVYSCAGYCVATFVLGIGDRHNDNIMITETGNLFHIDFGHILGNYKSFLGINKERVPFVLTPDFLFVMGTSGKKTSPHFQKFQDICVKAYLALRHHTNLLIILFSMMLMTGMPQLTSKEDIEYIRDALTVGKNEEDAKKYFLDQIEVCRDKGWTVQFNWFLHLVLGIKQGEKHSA

For `O=C1NC(=O)/C(=C\c2ccc3nccnc3c2)S1` [AS 605240], the “efficacy in a mouse model of rheumatoid arthritis” value in assay [1] is listed as “efficacious”. In addition, in [2], the “onset of disease in a model of systemic lupus erythematosis” value is listed as “delay onset of disease”.

Take `C[C@H](Nc1ncnc(N)c1C#N)c1cc2cccc(F)c2nc1-c1ccccc1S(C)(=O)=O` [Example 1, 4-amino-6-(((1S)-1-(8-fluoro-2-(2-(methylsulfonyl)phenyl)-3-quinolinyl)-ethyl)amino)-5-pyrimidinecarbonitrile]: the “PI3Ka IC50” value on PI3Ka is 9.9800 µM. In addition, the “PI3K: a/d” value at PI3Ka turned out to be 3327. The pIC50 was 5.22 on PI3Kb [3]; 8.66 in the assay on mu splenocytes pAKT; 5.59 at PI3Kb [4]; 5.32 on PI3Kb [5]; below 5.00 against PI3KIII; 5.79 against PI3Kg. Also, at PI3K d, the pIC50 is 8.52. For the same molecule, the “PI3K: g/d” value on PI3Kg worked out at 537. The “in vivo pAKT data, ED50 (uM) WB” value with pAKT was found to be 0.041 uM. The “in vivo pAKT data, ED50 (uM) spleenocytes” value in the assay with pAKT is recorded as 0.010 uM. In the assay with PI3K b, the “PI3K: b/d” value amounted to 1580.

For the molecule `C[C@H](Nc1ncnc(N)c1C#N)c1cc2ccc(F)cc2nc1-c1ccccc1S(C)(=O)=O` [Example 2, (S)-4-amino-6-((1-(7-fluoro-2-(2-(methylsulfonyl)phenyl)quinolin-3-yl)ethyl)-amino)pyrimidine-5-carbonitrile], the “PI3Ka IC50” value on PI3Ka came out at 7.0400 µM. For the same molecule, the “PI3K: a/d” value at PI3Ka turned out to be 903. For the same molecule, the pIC50 at PI3Kb [3] is below 5.00; in the assay with mu splenocytes pAKT, 8.92; at PI3Kb [4], 6.09; at PI3Kb [5] it was 5.87; on PI3KIII, below 5.00; against PI3Kg, 6.09. The molecule also gave a pIC50 on PI3K d of 8.11. For the same molecule, the “PI3K: g/d” value at PI3Kg was found to be 103. Besides, in the assay with pAKT, the “in vivo pAKT data, ED50 (uM) WB” value was 0.36 uM. In addition, the “in vivo pAKT data, ED50 (uM) spleenocytes” value with pAKT was found to be 0.26 uM. Besides, the “PI3K: b/d” value in the assay with PI3K b is 174.

As for `C[C@H](Nc1ncnc(N)c1C#N)c1cc2ccc(F)cc2nc1-c1cccc(F)c1` [Example 3, 4-amino-6-((S)-1-(7-fluoro-2-(3-fluorophenyl)quinolin-3-yl)ethylamino)-pyrimidine-5-carbonitrile], the “PI3Ka IC50” value at PI3Ka amounted to 3.4200 µM. Further, the “PI3K: a/d” value on PI3Ka stood at 671. The pIC50 at PI3Kb [3] is 5.42; with mu splenocytes pAKT it was 8.82; at PI3Kb [4] it was 6.32; on PI3Kb [5], 6.36; against PI3KIII, below 5.00; at PI3Kg it was 7.20. Further, the pIC50 against PI3K d was 8.29. Besides, the “PI3K: g/d” value at PI3Kg is given as 12. In addition, in the assay on PI3K b, the “PI3K: b/d” value came out at 85.

Consider `C[C@H](Nc1ncnc(N)c1C#N)c1cc2ccc(F)cc2nc1-c1ccccn1` [Example 4, 4-amino-6-((S)-1-(7-fluoro-2-(pyridin-2-yl)quinolin-3-yl)ethylamino)-pyrimidine-5-carbonitrile], for which the “PI3Ka IC50” value at PI3Ka amounted to 12.0600 µM. In addition, the “PI3K: a/d” value on PI3Ka is recorded as 1206. The pIC50 is 5.71 at PI3Kb [3]; 8.74 with mu splenocytes pAKT; 6.21 on PI3Kb [4]; 6.28 at PI3Kb [5]; below 5.00 against PI3KIII; 6.35 at PI3Kg. Moreover, the pIC50 at PI3K d was 8.00. Further, the “PI3K: g/d” value at PI3Kg was 45. Moreover, the “PI3K: b/d” value in the assay with PI3K b is 52.

As to `C[C@H](Nc1ncnc(N)c1C#N)c1nc2cccc(Cl)c2nc1-c1ccccc1S(C)(=O)=O` [Example 5, (S)-4-amino-6-((1-(5-chloro-3-(2-(methylsulfonyl)phenyl)quinoxalin-2-yl)-ethyl)amino)pyrimidine-5-carbonitrile], the “PI3Ka IC50” value on PI3Ka was 5.1600 µM. Further, the “PI3K: a/d” value on PI3Ka is 1985. The pIC50 was below 5.00 on PI3Kb [3]; 8.30 in the assay on mu splenocytes pAKT; below 5.00 on PI3Kb [4]; 6.19 at PI3Kb [5]; below 5.00 on PI3KIII; 6.21 at PI3Kg. The molecule also showed a pIC50 at PI3K d of 8.59. At PI3Kg, the “PI3K: g/d” value was found to be 238. In addition, the “in vivo pAKT data, ED50 (uM) WB” value with pAKT came out at 0.056 uM. Also, the “in vivo pAKT data, ED50 (uM) spleenocytes” value with pAKT is given as 0.012 uM. Besides, in the assay on PI3K b, the “PI3K: b/d” value is 251.

For the molecule `C[C@H](Nc1ncnc(N)c1C#N)c1nc2cccc(C#N)c2nc1-c1ccccc1S(C)(=O)=O` [Example 6, 2-((S)-1-(6-amino-5-cyanopyrimidin-4-ylamino)ethyl)-3-(2-(methylsulfonyl)-phenyl)quinoxaline-5-carbonitrile], the “PI3Ka IC50” value on PI3Ka was found to be 25.0000 µM. Besides, the “PI3K: a/d” value on PI3Ka was 3571. The pIC50 in the assay with mu splenocytes pAKT was 8.22; on PI3Kb [4] it was 4.96; on PI3Kb [5], 5.24; against PI3KIII, below 5.00; at PI3Kg, 5.55; against PI3K d, 8.15. In addition, on PI3Kg, the “PI3K: g/d” value stood at 400. In the assay on pAKT, the “in vivo pAKT data, ED50 (uM) WB” value is given as 0.13 (WB) uM. For the same molecule, in the assay on PI3K b, the “PI3K: b/d” value is 829.
